Measurements published in patent US20170269060A1, “Assays and Compounds to Treat Kidney Diseases” (Rush University Medical Center, priority 2014, published 2017).

Assays:
murine podocytes = test: Primary HCS screen of chemical library, cell roundness Z score, PAN injury; assay type: cell-based; conditions: PAN 16 μg/ml, 48 hours; Z-score cutoff ≦−1.28
Protocol: Screening of chemical libraries, which include the MicroSource Spectrum collection (MicroSource Discovery Systems, Inc., Gaylorsville, C T, 2000 compounds) and Enzo kinase inhibitor array (Enzo Life Sciences, Farmingdale, N.Y., 80 compounds), Sigma, Millipore, Tocris and Cayman (41 compounds), was performed using multiwall plates. Podocytes cultured in multiwall plates were used in these assays. 100 nL of each compound, also in multiwall plates (at a stock concentration of 1 mM to 10 mM in DMSO), was added to each well of a podocyte containing multiwall plate using the Perkin Elmer Janus automated workstation with the help of a 96-pin or 384-pin pin tool (100 nL, PerkinElmer). The compounds were added in the absence or presence of podocyte damaging agent (such as PAN). The plates containing the compounds were subsequently placed in tissue culture incubators and cells were further cultured for 1-72 h at 37° C. A compound that decreased PAN damaged was identified by quantifying the changes in at least one of the following parameters: cell morphology, cell roundedness, F-actin intensity, number of focal adhesions, intensity or size of focal adhesions, length of actin fibers, size of actin fibers, percent damaged or percent healthy cells etc. In certain cases, hits were validated by acquiring a fresh batch of the compound from commercial sources and performing dose-response curves. Images from the primary screen were quantified for cell morphology parameter and were normalized by calculating z-score (z) for each test compound, to compensate for any plate-to-plate variability. (Wiggins, Kidney International, 2007) z was calculated for each of the test compounds using the formula: […]
where x is the raw measured value with each compound, μ is the mean of all measured raw values across a plate and a is the standard deviation of the measurements. A z-score of […], corresponding to 90% population under the curve, was used as a cutoff to identify primary hits in the assay.
To identify small molecules that protect podocytes from PAN injury, a chemical library of 2121 pharmacologically active compounds was screened. Podocytes were treated with compounds from the chemical library in the presence of PAN (16 μg/ml) at 37° C. for 48 hours. The assay plates also contained eight positive (PAN and MZR treatment) and eight negative (PAN treatment) control wells. Wells were imaged and analyzed, and the mean cell roundness per cell was calculated for each well. Mean cell roundness was normalized using plate-based positive and negative controls, and a Z score for the change in cell morphology on treatment with each compound (SD away from the plate mean) was calculated. The results from the screen are presented as a graph in FIG. 7A. Wells with nuclei counts. […] Primary hits (compounds that protected podocytes from PAN damage) were identified from the assay using a Z-score cutoff of ≦−1.28 corresponding to the 10% population on one side of the bell-shaped curve. […] Given that our assay is image based, the images from all initial hits were visually inspected manually, which eliminated 10 compounds as nonhits. […] The identified list of primary hit compounds included three Rho kinase inhibitors (Y27632, GSK 429286, and Thiazovivin) and a p38 kinase inhibitor (SB 203580). […] Next, to validate the hit compounds identified from our screen, selected primary hits were reanalyzed using independently obtained powder forms of the compounds.

mouse podocytes = test: Scratch, wound-healing assay (podocyte migration); assay type: cell-based; conditions: PAN or LPS treatment, cotreatment, 48 hours
Protocol: The effect of identified novel compounds on podocyte migration was assessed using a classic scratch, wound-healing assay as described. (Mathieson, Nat Rev Nephrol, 2012.) Differentiated mouse podocytes per well were seeded overnight in type-I collagen coated wells of a 24 well plate. Each well was subsequently scratched using a sterile 200 μI pipette tip, washed and placed into fresh culture medium. Cells in wells were also treated with PAN, LPS, pyr or a combination, as described in the text. After 48 h, cells were fixed with 2% paraformaldehyde and stained with DAPI. Images of cells near scratched surfaces and their DAPI-stained nuclei were acquired using a 10× objective using a Zeiss Axio Observer D1 microscope (Carl Zeiss Group, Hartford, Conn.) and analyzed using ImageJ software (NIH). Images using transmitted light were also acquired at the beginning and the end of the experiment and were used to align images of pre- and post-treated cells for counting cells that had migrated into similar sized fields. The data shown represent the mean±SEM of three independent experiments.
Next, we assessed the efficacy of this small molecule in a functional assay. In vitro, PAN- or LPS-mediated injury promotes directional migration and wound closure by podocytes in a scratch wound-healing assay.

SMILES: O=S(=O)(NCC1CC1)c1ccc(Nc2nccc(N3CCCc4cc(O)ccc43)n2)cc1 [Pyrintegrin]
- primary hit (protects podocytes from PAN damage) (murine podocytes): top primary hit
- podocyte motility and wound closure (mouse podocytes): significantly reduced podocyte motility and wound closure
